Where two headings read alike, the source gives them in different places.
How the values were obtained:
[1] = system: Mycosphaerella graminicola; Anamorph: Septoria tritici; assay: Fungicidal activity: Leaf Blotch of Wheat (SEPTTR), wheat plants variety Yuma; format: in vivo; set-up: key to SEPTTR 3DC Disease Control: A: 50-100; B: More than 0-Less than 50; C: Not Tested; D: No activity noticed in this bioassay; details: for pest or weed control at 100 ppm: Zymoseptoria tritici
In short: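 Greenhouse wheat seedlings at first-leaf stage, 7-10 per pot, inoculated with aqueous Septoria tritici spore suspension before or after fungicide treatment. Kept at 100% relative humidity (1 day dark dew chamber, then 2-3 days lighted), then greenhouse at 20° C. for disease development.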

[2] = system: Puccinia triticina. Synonym: Puccinia recondite f. sp. tritici; assay: Fungicidal activity: Wheat Brown Rust (PUCCRT), wheat plants variety Yuma; format: in vivo; set-up: key to PUCCRT 3DC Disease Control: A: 50-100; B: More than 0-Less than 50; C: Not Tested; D: No activity noticed in this bioassay; details: for pest or weed control at 100 ppm: Puccinia triticina; for PUCCRT 3DC Disease Control: 100 ppm
In short: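 Yuma wheat seedlings at first-leaf stage were inoculated with P. triticina spore suspension before or after fungicide treatment. Plants were held overnight at 100% relative humidity, then kept in a 24 C greenhouse for disease development.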

[3] = 24 h, 1 Day Protectant, read-out: SEPTTR 1DP Disease Control
[4] = 72 h, 3 Day Curative, read-out: SEPTTR 3DC Disease Control
[5] = 24 h, 1 Day Protectant, read-out: PUCCRT 1DP Disease Control
[6] = 72 h, 3 Day Curative, read-out: PUCCRT 3DC Disease Control

Compound	pest or weed control at 100 ppm [1, 3] [%]	pest or weed control at 100 ppm [1, 4] [%]	melting point [°C]	pest or weed control at 100 ppm [2, 5] [%]	pest or weed control at 100 ppm [2, 6] [%]	PUCCRT 3DC Disease Control ([2]; 3 Day Curative)	SEPTTR 3DC Disease Control ([1]; 100 ppm, 3 Day Curative)
COc1ccnc(C(=O)N[C@H]2COC(=O)[C@H](CC(=O)OC(C)C)[C@@H](OC(=O)C(C)C)[C@H](C)OC2=O)c1O [Compound 49]	50 to 100	50 to 100	169 to 170	50 to 100	50 to 100		
COC(=O)C[C@H]1C(=O)OC[C@H](NC(=O)c2nccc(OC)c2O)C(=O)O[C@@H](C)[C@@H]1OC(=O)C(C)C [Compound 50]	50 to 100	50 to 100	138 to 140	50 to 100	50 to 100		
COc1ccnc(C(=O)N[C@H]2COC(=O)[C@H](CCOC=O)[C@@H](OC(=O)C(C)C)[C@H](C)OC2=O)c1O [Compound 51, (3S,6S,7R,8R)-8-(2-(formyloxy)ethyl)-3-(3-hydroxy-4-methoxypicolinamido)-6-methyl-4,9-dioxo-1,5-dioxonan-7-yl isobutyrate]	0 to 50	0 to 50	103 to 105	50 to 100		D	
COc1ccnc(C(=O)N[C@H]2COC(=O)[C@H](CC(F)F)[C@@H](OC(=O)C(C)C)[C@H](C)OC2=O)c1O [Compound 52, (3S,6S,7R,8R)-8-(2,2-difluoroethyl)-3-(3-hydroxy-4-methoxypicolinamido)-6-methyl-4,9-dioxo-1,5-dioxonan-7-yl isobutyrate]	50 to 100	0 to 50	195 to 196	50 to 100	0 to 50		
CC[C@H]1C(=O)OC[C@H](NC(=O)c2nccc(OC)c2O)C(=O)O[C@@H](C)[C@@H]1OC(=O)C(C)C [Compound 53, (3S,6S,7R,8R)-8-ethyl-3-(3-hydroxy-4-methoxypicolinamido)-6-methyl-4,9-dioxo-1,5-dioxonan-7-yl isobutyrate]	50 to 100	0 to 50	193 to 195	50 to 100		D	
COc1ccnc(C(=O)N[C@H]2COC(=O)[C@H](CCn3cc(-c4cccc(Cl)c4)nn3)[C@@H](OC(=O)C(C)C)[C@H](C)OC2=O)c1O [Compound 54, (3S,6S,7R,8R)-8-(2-(4-(3-chlorophenyl)-1H-1,2,3-triazol-1-yl)ethyl)-3-(3-hydroxy-4 methoxypicolinamido)-6-methyl-4,9-dioxo-1,5-dioxonan-7-yl isobutyrate]	50 to 100	0 to 50	222 to 224	50 to 100		D	
COc1ccnc(C(=O)N[C@H]2COC(=O)[C@H](CCn3cc(-c4ccccc4)nn3)[C@@H](OC(=O)C(C)C)[C@H](C)OC2=O)c1O [Compound 55]	50 to 100	0 to 50	222 to 224	50 to 100	0 to 50		
COc1ccnc(C(=O)N[C@H]2COC(=O)[C@H](CCOS(C)(=O)=O)[C@@H](OC(=O)C(C)C)[C@H](C)OC2=O)c1O [Compound 56, (3S,6S,7R,8R)-3-(3-hydroxy-4-methoxypicolinamido)-6-methyl-8-(2(methylsulfonyloxy)ethyl)-4,9-dioxo-1,5-dioxonan-7-yl isobutyrate]	0 to 50	0 to 50	153 to 155	50 to 100	0 to 50		
COc1ccnc(C(=O)N[C@H]2COC(=O)[C@H](CCc3ccccc3)[C@@H](OC(=O)C(C)C)[C@H](C)OC2=O)c1O [Compound 57, (3S,6S,7R,8R)-3-(3-hydroxy-4-methoxypicolinamido)-6-methyl-4,9-dioxo-8-phenethyl-1,5-dioxonan-7-yl isobutyrate]	50 to 100	0 to 50	183 to 184	50 to 100	50 to 100		
COc1ccnc(C(=O)N[C@H]2COC(=O)[C@H](CCc3ccc(F)cc3)[C@@H](OC(=O)C(C)C)[C@H](C)OC2=O)c1O [Compound 58]	50 to 100	0 to 50	142 to 144	50 to 100	50 to 100		
COc1ccnc(C(=O)N[C@H]2COC(=O)[C@H](CCc3cccnc3)[C@@H](OC(=O)C(C)C)[C@H](C)OC2=O)c1O [Compound 59]	0 to 50	0 to 50	169 to 170	50 to 100	0 to 50		
COc1ccnc(C(=O)N[C@H]2COC(=O)[C@H](CCOCc3ccccc3)[C@@H](OC(=O)C(C)C)[C@H](C)OC2=O)c1O [Compound 60, (3S,6S,7R,8R)-8-(2-(benzyloxy)ethyl)-3-(3-hydroxy-4-methoxypicolinamido)-6-methyl-4,9-dioxo-1,5-dioxonan-7-yl isobutyrate]	50 to 100	0 to 50	139 to 140	50 to 100	50 to 100		
COc1ccnc(C(=O)N[C@H]2COC(=O)[C@H](CC3CCCCC3)[C@@H](OC(=O)C(C)C)[C@H](C)OC2=O)c1O [Compound 61, (3S,6S,7R,8R)-8-(cyclohexylmethyl)-3-(3-hydroxy-4-methoxypicolinamido)-6-methyl-4,9-dioxo-1,5-dioxonan-7-yl isobutyrate]	50 to 100	50 to 100	188 to 189	50 to 100	0 to 50		
CCCCCCC[C@H]1C(=O)OC[C@H](NC(=O)c2nccc(OC)c2O)C(=O)O[C@@H](C)[C@@H]1OC(=O)C(C)C [Compound 63, (3S,6S,7R,8R)-8-heptyl-3-(3-hydroxy-4-methoxypicolinamido)-6-methyl-4,9-dioxo-1,5-dioxonan-7-yl isobutyrate]	50 to 100	0 to 50	131 to 134	50 to 100		D	
CCC[C@H]1C(=O)OC[C@H](NC(=O)c2nccc(OC)c2O)C(=O)O[C@@H](C)[C@@H]1OC(=O)C(C)C [Compound 64]	50 to 100	50 to 100	165 to 168	50 to 100	0 to 50		
COc1ccnc(C(=O)N[C@H]2COC(=O)[C@H](CSc3ccccn3)[C@@H](OC(=O)C(C)C)[C@H](C)OC2=O)c1O [Compound 65, (3S,6S,7R,8R)-3-(3-hydroxy-4-methoxypicolinamido)-6-methyl-4,9-dioxo-8-((pyridin-2-ylthio)methyl)-1,5-dioxonan-7-yl isobutyrate]	50 to 100	0 to 50	148 to 150	50 to 100	0 to 50		
COc1ccnc(C(=O)N[C@H]2COC(=O)[C@H](CC3CCCCC3)[C@@H](OC(=O)C(C)C)[C@H](C)OC2=O)c1OC(C)=O [Compound 66, (3S,6S,7R,8R)-3-(3-acetoxy-4-methoxypicolinamido)-8-(cyclohexylmethyl)-6-methyl-4,9-dioxo-1,5-dioxonan-7-yl isobutyrate]	50 to 100	50 to 100	164 to 170	50 to 100	50 to 100		
COc1ccnc(C(=O)N[C@H]2COC(=O)[C@H](Cc3ccc(C(F)(F)F)cc3)[C@@H](OC(=O)C(C)C)[C@H](C)OC2=O)c1OC(C)=O [Compound 67]	0 to 50		127 to 134	50 to 100	50 to 100		D

Reference: patent US9131690B2, “Macrocyclic picolinamides as fungicides” (Dow AgroSciences LLC, priority 2012, dated 2015)
